The target of series [1] is T1, wild-type human androgen receptor (Homo sapiens, UniProt P10275).
T1 construct: expressed in transfected cells
T1 sequence (P10275 1-920): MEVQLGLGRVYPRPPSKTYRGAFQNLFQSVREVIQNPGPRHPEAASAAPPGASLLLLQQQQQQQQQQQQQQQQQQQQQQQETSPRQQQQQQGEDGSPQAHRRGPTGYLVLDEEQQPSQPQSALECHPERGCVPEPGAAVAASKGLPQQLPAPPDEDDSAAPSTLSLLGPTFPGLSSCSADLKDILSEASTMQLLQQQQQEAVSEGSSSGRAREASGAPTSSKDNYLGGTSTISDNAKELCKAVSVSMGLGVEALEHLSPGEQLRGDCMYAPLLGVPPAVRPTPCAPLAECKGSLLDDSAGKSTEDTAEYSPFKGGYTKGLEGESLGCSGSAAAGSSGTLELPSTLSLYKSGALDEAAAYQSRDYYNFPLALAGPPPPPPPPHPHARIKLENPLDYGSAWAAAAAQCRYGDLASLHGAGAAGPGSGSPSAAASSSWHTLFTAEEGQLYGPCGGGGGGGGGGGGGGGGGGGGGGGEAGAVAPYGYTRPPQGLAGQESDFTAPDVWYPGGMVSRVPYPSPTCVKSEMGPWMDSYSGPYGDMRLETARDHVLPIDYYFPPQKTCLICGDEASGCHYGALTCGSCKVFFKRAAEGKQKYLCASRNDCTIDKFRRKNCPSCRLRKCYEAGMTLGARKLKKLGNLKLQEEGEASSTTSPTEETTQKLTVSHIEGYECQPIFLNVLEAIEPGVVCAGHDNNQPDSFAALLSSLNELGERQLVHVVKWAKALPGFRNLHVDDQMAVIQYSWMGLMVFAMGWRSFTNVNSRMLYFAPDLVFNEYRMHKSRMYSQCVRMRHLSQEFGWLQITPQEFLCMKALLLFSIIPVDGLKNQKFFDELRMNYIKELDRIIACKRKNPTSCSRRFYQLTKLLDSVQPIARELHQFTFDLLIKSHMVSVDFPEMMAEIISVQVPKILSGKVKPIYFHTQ
Description: Cell-based transactivation assay for wild-type human androgen receptor (PC-3 cells, MMTV-luciferase reporter).
Description: Cell-Based Transactivation Assay for Wild-Type Human Androgen Receptor
PC-3 cells (Kaighn et al., Invest. Urol. 17:16-23, 1979) stably transfected with the human androgen receptor (Swiss-Prot Acc. No. P10275, Entry Version 159, Sequence Version 2) and a reporter plasmid based on pGL4.14 (#E6691, Promega Corporation, Madison, Wis., USA) containing the MMTV promoter (Cato et al., EMBO J. 6:363-8, 1987) were used. They were grown in 5% charcoal-stripped medium and seeded at a concentration of 1000 cells per well in a 384-well plate. For determination of antagonistic activity, the plate additionally contained the compound to be tested at a concentration range varying from 5.12×10^−12 to 1×10^−5 M. The assay was performed in presence of 1×10^−10 R1881 (also known as methyltrienolone). After overnight incubation at 37° C. in a 5% CO2 atmosphere, 15 μl of Steady Glo Lysis and Detection reagent (Steady Glo Luciferase assay system E2550 from Promega Corporation. Madison, Wis., USA) were added. IC50 was calculated for anti-androgenic activity as well as percentage inhibition in presence of 2 μM compound in comparison to non-stimulated luciferase signal. Agonistic activity was determined using the same concentration range of compound in the absence of R1881 by measuring Luciferase activity as above. EC50 was calculated for androgenic activity. Assay/read plates were used (Polystyrol; 384, NV-white cell culture plates; Perkin Elmer).

Series [2] has as its target T2, human androgen receptor W741L mutant (Homo sapiens, UniProt P10275, W742L).
T2 construct: expressed in transfected cells; host or cells: PC-3 cells, transient transfection with a pSG5-derived plasmid
T2 sequence (P10275 1-920 W742L): T1 sequence (P10275 1-920) with W742L
Description: Cell-based transactivation assay for human androgen receptor mutant W741L.
Description: (§1) Cell-Based Transactivation Assay for Human Androgen Receptor Mutant W741L or W741C
(§2) PC-3 cells (Kaighn et al., Invest. Urol. 17:16-23, 1979) were grown in 5% charcoal-stripped medium and seeded at a concentration of 10000 cells per well in a 96-well plate. They were transiently transfected with a pSG5-derived plasmid (#216201 from Stratagene, La Jolla, Calif., USA) coding for the human androgen receptor W741L or W741C mutant Mara et al., Cancer Research, 63: 149-153, 2003) and an MMTV-Luciferase reporter plasmid based on pGL4.14 14 (#E6691, Promega Corporation, Madison, Wis., USA). The compound to be tested was added at a concentration range varying from 1×10^−9 to 1×10 M together with 1×10^−10 R1881. After 24 h incubation at 37° C. in a 5% CO2 atmosphere, 100 μl of Steady Glo Lysis and Detection reagent (Steady Glo Luciferase assay system E2550 from Promega Corporation. Madison, Wis., USA) were added. Antagonistic activity was determined by measuring Luciferase activity in a Victor 3 Luminometer (PerkinElmer, Waltham, Mass., USA) using the Steady Glo Luciferase Assay (E2550, Promega). IC50 values were calculated for anti-androgenic activity.

Series [3] in a line: Determination of metabolic stability in vitro (calculation of hepatic in vivo blood clearance). It counts as in vitro ADME. The conditions noted are these: pH 7.4, human liver microsomes, calculated from half-life, read-out: calculated hepatic in vivo blood clearance (CL) (converted). As for the experimental part: Determination of Metabolic Stability In Vitro (Including Calculation of Hepatic In Vivo Blood Clearance (CL) and of Maximal Oral Bioavailability (Fmax))
The metabolic stability of test compounds in vitro was determined by incubating them at 1 μM with a suspension of human liver microsomes in 100 mM phosphate buffer, pH7.4 (NaH2PO4×H2O+Na2HPO4×2H2O) at a protein concentration of 0.5 mg/ml and at 37° C. The reaction was activated by adding a co-factor mix containing 1.2 mg NADP, 3 IU glucose-6-phosphate dehydrogenase, 14.6 mg glucose-6-phosphate and 4.9 mg MgCl2 in phosphate buffer, pH 7.4. Organic solvent in the incubations was limited to <0.2% dimethylsulfoxide (DMSO) and <1% methanol. During incubation, the microsomal suspensions were continuously shaken and aliquots were taken at 2, 8, 16, 30, 45 and 60 min, to which equal volumes of cold methanol were immediately added. Samples were freezed at −20° C. over night, subsequently centrifuged for 15 minutes at 3000 rpm and the supernatant was analyzed with an Agilent 1200 HPLC-system with LCMS/MS detection.
The half-life of a test compound was determined from the concentration-time plot. From the half-life the intrinsic clearances were calculated. Together with the additional parameters liver blood flow, specific liver weight and microsomal protein content the hepatic in vivo blood clearance (CL) and the maximal oral bioavailability (Fmax) were calculated for the different species. The following parameter values were used: Liver blood flow—1.3 l/h/kg human; specific liver weight—21 g/kg human; microsomal protein content—40 mg/g.
With the described assay only phase-I metabolism of microsomes is reflected, e.g. typically oxidoreductive reactions by cytochrome P450 enzymes and flavin mono-oxygenases (FMO) and hydrolytic reactions by esterases (esters and amides).

Series [4] deals with T3, human androgen receptor W741C mutant (Homo sapiens, UniProt P10275, W742C).
T3 construct: expressed in transfected cells; host or cells: PC-3 cells, transient transfection with a pSG5-derived plasmid
T3 sequence (P10275 1-920 W742C): T1 sequence (P10275 1-920) with W742C
Put plainly: Cell-based transactivation assay for human androgen receptor mutant W741C.
Description: as §1, §2

The subject of the next series is LNCaP cells. Description: Proliferation assay with LNCaP cells. The format is cell-based. The note with it: Homo sapiens, 168 h, R1881 (1×10^−10) stimulated growth, day 7, read-out: inhibition IC50 (LNCaP). As for the experimental part: Proliferation Assay with LNCaP Cells
LNCaP cells (Horoszewicz et al., in “Models for Prostate Cancer” (ed. G. P. Murphy), Alan R. Liss, New York 1981, p. 115-132; Horoszewicz et al., Cancer Res. 43:1809-1818, 1983) were seeded at 2000 cells/well in 96-well plates in RPMI (F1235, Biochrom AG, Berlin, Germany) without phenol red supplemented with 5% charcoal-stripped serum. After 3 days, the cells were treated with R1881) (1×10^−10) and compound (day 0). Cell number was determined by Alamar Blue (DAL1100, Invitrogen, Life Technologies, Lohne, Germany) staining (2.5 h) at day 0 and day 7. Fluorescence was determined in Victor3 (Excitation 530 nm; emission 590 nm). Stimulated growth was defined as the signal measured at day 7 for cells treated only with R1881. Basal level was defined as the signal measured at day 7 for cells grown without R1881.

Another series has as its system VCaP cells. Description: Proliferation assay with VCaP cells. It counts as cell-based. The note with it: Homo sapiens, 168 h, R1881 (1×10^−10) stimulated growth, day 7, read-out: Antiproliferative activity VCaP IC50. As to the method: Proliferation Assay with VCaP Cells
VCaP cells ((Korenchuk et al., In Vivo 15: 163-168, 2001)) were seeded at 16 000 cells/well in 96-well plates in DMEM (F0445, Biochrom AG, Berlin, Germany) with phenol red supplemented with 10% charcoal-stripped serum. After 1 day, the cells were treated with R1881 (1×10^−10) and compound (day 0). Cell number was determined by Alamar Blue (DAL1100, Invitrogen, Life Technologies, Lohne, Germany) staining (2.5 h) at day 0 and day 7. Fluorescence was determined in Victor3 (Excitation 530 nm; emission 590 nm). Stimulated growth was defined as the signal measured at day 7 for cells treated only with R1881. Basal level was defined as the signal measured at day 7 for cells grown without R1881.

The values that follow come from US20120251551A1, “Substituted (Heteroarylmethyl)thiohydantoins” (BAYER PHARMA AKTIENGESELLSCHAFT, priority 2009, published 2012).

SMILES strings stand for the structures. Changes are numbered by the printed parent chain.

Turning to `CC1(C)C(=O)N(c2ccc(C#N)c(C(F)(F)F)c2)C(=S)N1Cc1cnc(-n2ccnc2)nc1` [Example 17, 4-(3-{[2-(1H-Imidazol-1-yl)pyrimidin-5-yl]methyl}-4,4-dimethyl-5-oxo-2-thioxoimidazolidin-1-yl)-2-(trifluoromethyl)benzonitrile], the EC50 in series [1] is > 10000 nM. The IC50 in series [2] stood at 20.6 nM. For the same molecule, the CLhep predicted at 1 µM in series [3] was 1.5 mL/min/kg.
For the molecule `Cc1cn(-c2ccc(CN3C(=S)N(c4ccc(C#N)c(C(F)(F)F)c4)C(=O)C3(C)C)cn2)cn1` [Example 19, 4-(4,4-Dimethyl-3-{[6-(4-methyl-1H-imidazol-1-yl)pyridin-3-yl]methyl}-5-oxo-2-thioxoimidazolidin-1-yl)-2-(trifluoromethyl)benzonitrile], in series [1], the EC50 is > 10000 nM. Also, the values for the IC50 (in series [2]; in series [4]; in the series on LNCaP cells) were 201 nM, 52.9 nM and 96 nM, respectively.
Take `Cn1nccc1-c1ccc(CN2C(=S)N(c3ccc(C#N)c(C(F)(F)F)c3)C(=O)C2(C)C)cn1` [Example 20, 4-(4,4-Dimethyl-3-{[6-(1-methyl-1H-pyrazol-5-yl)pyridin-3-yl]methyl}-5-oxo-2-thioxoimidazolidin-1-yl)-2-(trifluoromethyl)benzonitrile]: the EC50 in series [1] is > 10000 nM. The IC50 in series [2] came to 233 nM; in series [4], 99.9 nM; in the series on LNCaP cells it was 46 nM.
Turning to `Cc1nc(Cl)cn1-c1ccc(CN2C(=S)N(c3ccc(C#N)c(C(F)(F)F)c3)C(=O)C2(C)C)cn1` [Example 21, 4-(3-{[6-(4-Chloro-2-methyl-1H-imidazol-1-yl)pyridin-3-yl]methyl}-4,4-dimethyl-5-oxo-2-thioxoimidazolidin-1-yl)-2-(trifluoromethyl)benzonitrile], in series [1], the EC50 was > 10000 nM. The molecule further displayed an IC50 in series [2] of 296 nM. For the same molecule, the CLhep predicted at 1 µM in series [3] is 6.67 mL/min/kg.
Take `CC1(C)C(=O)N(c2ccc(C#N)c(C(F)(F)F)c2)C(=S)N1Cc1ccc(-n2cnc(C(F)(F)F)c2)nc1` [Example 23, 4-[4,4-Dimethyl-5-oxo-2-thioxo-3-({6-[4-(trifluoromethyl)-1H-imidazol-1-yl]pyridin-3-yl}methyl)imidazolidin-1-yl]-2-(trifluoromethyl)benzonitrile]: the EC50 in series [1] is > 10000 nM. The IC50 in series [2] stood at 83 nM; in series [4], 148 nM; in the series on LNCaP cells it was 160 nM; with VCaP cells it was 340 nM.
On to `CC1(C)C(=O)N(c2ccc(C#N)c(C(F)(F)F)c2)C(=S)N1Cc1ccc(-c2cccs2)nc1` [Example 24, 4-(4,4-Dimethyl-5-oxo-3-{[6-(thien-2-yl)pyridin-3-yl]methyl}-2-thioxoimidazolidin-1-yl)-2-(trifluoromethyl)benzonitrile], for which, in series [1], the EC50 is > 10000 nM. Besides, in series [2], it took 202 nM to reach half-maximal inhibition (IC50). The CLhep predicted at 1 µM in series [3] is 6.67 mL/min/kg.
